Experimental findings from BindingDB's records for doi:10.7270/Q2CV4GM1 (D3R/Abbott, 2015) are described below.

Values joined by “and” are separate entries in the source; they are usually repeats but may differ in a detail not shown here. Equal values may be shown once.

The test has as its target T1, Tyrosine-protein kinase SYK [355-635] (Homo sapiens, UniProt P43405).
T1 construct: 355-635
Kind of test: SYK assay_HTRF.

Consider `O=S(=O)(Cc1ccc(Nc2nccc(Nc3cccc4[nH]ncc34)n2)cc1)NCCCO` [GTC000203A], for which the 50% inhibitory concentration (IC50) (usually the point on the concentration scale where inhibition reaches its midpoint) stood at 746 nM. That is a sub-micromolar value.

Turning to `COCCCN(c1nc(Nc2ccc3[nH]c(=O)[nH]c3c2)ncc1F)c1cccc2[nH]ncc12` [GTC000263A], the IC50 amounted to 4.86 nM.

For the compound `NCCCCCN(c1ccnc(Nc2ccc3c(c2)S(=O)(=O)NC3)n1)c1cccc2[nH]ncc12` [GTC000244A], the 50% inhibitory concentration (IC50) is 3 nM and 3.31 nM and 5.53 nM.

In the case of `NCCN(c1nc(Nc2ccc3c(c2)S(=O)(=O)CC3)ncc1F)c1cccc2[nH]ncc12` [GTC000371A], the IC50 was determined as 225 nM.

`CCN(c1nc(Nc2ccc3c(c2)S(=O)(=O)CC3)ncc1F)c1cccc2[nH]ncc12` [GTC000277A]: the concentration for half-maximal inhibition (IC50) is 7.19 nM and 7.62 nM.

Take `O=S1(=O)CCc2ccc(Nc3ncc(F)c(N(CCCCO)c4cccc5[nH]ncc45)n3)cc21` [GTC000235A]: the half-maximal inhibitory concentration (IC50) is 9.64 nM and 1.94 nM and 1.64 nM.

`O=c1[nH]c2ccc(Nc3nccc(N(CCCO)c4cccc5[nH]ncc45)n3)cc2[nH]1` [GTC000256A] came in with an IC50 of 5.01 nM.

As to `NC(=O)c1ccc(Nc2nccc(Nc3cccc4[nH]ncc34)n2)cc1` [GTC000108B], the IC50 was 100 nM and 218 nM and 51.4 nM and 59.8 nM.

As for `COCCCN(c1ccnc(Nc2ccc3c(c2)COC(=O)N3)n1)c1cccc2[nH]ncc12` [GTC000238A], the IC50 turned out to be 2.92 nM.

`Cc1ncoc1-c1cccc(Nc2nccc(N(CCCCO)c3cccc4[nH]ncc34)n2)c1` [GTC000286A] showed a half-inhibitory concentration (IC50) of 7.64 nM.

`CCN(c1nc(Nc2ccc3[nH]c(=O)oc3c2)ncc1F)c1cccc2[nH]ncc12` [GTC000361A] gave an IC50 of 72.3 nM.

As to `Cc1nc(-c2cccc(Nc3nccc(Nc4cccc5[nH]ncc45)n3)c2)no1` [GTC000148A], the half-maximal inhibitory concentration (IC50) is 6.7 nM and 32 nM.

For the compound `CCN(c1nc(Nc2ccc3cnn(C)c3c2)ncc1F)c1cccc2[nH]ncc12` [GTC000255A], the half-maximal inhibitory concentration (IC50) was determined as 4.63 nM.

`CC(=O)N(C)c1ccc(Nc2nccc(Nc3cccc4[nH]ncc34)n2)cc1` [GTC000175A] came in with an IC50 of 793 nM.

Compound `O=c1[nH]c2ccc(Nc3nccc(Nc4cccc5[nH]ncc45)n3)cc2[nH]1` [GTC000115A] had an IC50 of 78.3 nM.

In the case of `c1cc(Nc2ccnc(Nc3ccc4ncsc4c3)n2)c2cn[nH]c2c1` [GTC000122A], the half-inhibitory concentration (IC50) is 40 nM and 53.5 nM.

In the case of `Cc1ccc(NC(=O)c2ccc(Nc3nccc(Nc4cccc5[nH]ncc45)n3)cc2)cc1` [GTC000183A], the IC50 was 546 nM and 618 nM.

Regarding `COCCCN(c1nc(Nc2cccc(C(N)=O)c2)ncc1F)c1cccc2[nH]ncc12` [GTC000346A], the IC50 is 30.3 nM.

`CC1(C)Oc2ccc(Nc3nccc(Nc4cccc5[nH]ncc45)n3)cc2NC1=O` [GTC000145A]: the IC50 is 38.6 nM and 153 nM.

With `c1cc(Nc2ccnc(Nc3ccc4nn[nH]c4c3)n2)c2cn[nH]c2c1` [GTC000112A], the IC50 is 52.8 nM and 79.8 nM.

In turn, `O=C(Cc1ccc(Nc2nccc(Nc3cccc4[nH]ncc34)n2)cc1)Nc1cccc(C(F)(F)F)c1` [GTC000212A] had a 50% inhibitory concentration (IC50) of 1040 nM.

`O=C(O)COc1ccc(Nc2nccc(Nc3cccc4[nH]ncc34)n2)cc1` [GTC000198A]: the half-inhibitory concentration (IC50) was determined as 326 nM.

`CCN(c1nc(Nc2cccc(S(C)(=O)=O)c2)ncc1F)c1cccc2[nH]ncc12` [GTC000300A] yielded an IC50 of 11.3 nM. This IC50 lies about 29-fold lower than the previous one.

With `c1ccc(COc2cccc(Nc3nccc(Nc4cccc5[nH]ncc45)n3)c2)cc1` [GTC000173A], the IC50 is 148 nM and 195 nM and 348 nM and 710 nM.

`CCN(c1nc(Nc2ccc3c(c2)COC(=O)N3)ncc1F)c1cccc2[nH]ncc12` [GTC000268A] yielded an IC50 of 6.76 nM.

With `O=S1(=O)NCc2ccc(Nc3nccc(N(CCCO)c4cccc5[nH]ncc45)n3)cc21` [GTC000226B], the half-inhibitory concentration (IC50) is 0.412 nM and 0.746 nM and 2.23 nM and 3.35 nM and 0.925 nM and 2.21 nM and 3.52 nM and 3.44 nM.

Consider `O=C1NC(=O)c2cc(Nc3nccc(Nc4cccc5[nH]ncc45)n3)ccc21` [GTC000171A], for which the IC50 came out at 506 nM.

`COCCCN(c1nc(Nc2cccc(S(N)(=O)=O)c2)ncc1F)c1cccc2[nH]ncc12` [GTC000301A]: the IC50 worked out at 12.1 nM.

For `CC(C)ONS(=O)(=O)c1cccc(Nc2nccc(Nc3cccc4[nH]ncc34)n2)c1` [GTC000178A], the IC50 is 685 nM.

On to `FC(F)(F)c1cccc(Nc2nccc(Nc3cccc4[nH]ncc34)n2)c1` [GTC000132A], for which the IC50 was 154 nM and 127 nM and 151 nM and 440 nM.

`CCN(c1nc(Nc2ccc3[nH]c(=O)[nH]c3c2)ncc1F)c1cccc2[nH]ncc12` [GTC000237B]: the 50% inhibitory concentration (IC50) is 1.87 nM and 6.87 nM and 3.76 nM and 3.14 nM and 8.63 nM and 2.75 nM.

`O=S1(=O)CCc2ccc(Nc3ncc(F)c(N(CCCO)c4cccc5[nH]ncc45)n3)cc21` [GTC000251A]: the 50% inhibitory concentration (IC50) was 6.11 nM and 4.06 nM and 3.67 nM.

`CN(c1nc(Nc2cccc(S(C)(=O)=O)c2)ncc1F)c1cccc2[nH]ncc12` [GTC000359A] had a half-inhibitory concentration (IC50) of 87.3 nM.

In turn, `CCN(c1nc(Nc2ccc(C)c(S(N)(=O)=O)c2)ncc1F)c1cccc2[nH]ncc12` [GTC000349A] came in with an IC50 of 35.9 nM.

As for `O=C(O)c1cccc(Nc2nccc(Nc3cccc4[nH]ncc34)n2)c1` [GTC000119A], the IC50 came out at 207 nM. This IC50 is about 5.8-fold higher than that of the compound before.

In the case of `O=C1Cc2cc(Nc3nccc(Nc4cccc5[nH]ncc45)n3)ccc2N1` [GTC000107A], the IC50 is 180 nM and 71 nM and 80.7 nM and 115 nM.

For the compound `Cc1nc2cc(Nc3nccc(Nc4cccc5[nH]ncc45)n3)ccc2s1` [GTC000168A], the IC50 was found to be 468 nM.

The compound `CNC(=O)COc1ccc(Nc2nccc(Nc3cccc4[nH]ncc34)n2)cc1` [GTC000197A] showed an IC50 of 299 nM. Compared with the last compound, the IC50 is about 1.6-fold lower.

The compound `CCN(c1nc(Nc2ccc(CCO)cc2)ncc1F)c1cccc2[nH]ncc12` [GTC000333A] showed an IC50 of 27.3 nM.

Take `NC(=O)c1cccc(Nc2nccc(N(CCCO)c3cccc4[nH]ncc34)n2)c1` [GTC000309A]: the midpoint of inhibition, the IC50, lay at 17.7 nM.

In turn, `O=C1CNC(=O)N1c1ccc(Nc2nccc(Nc3cccc4[nH]ncc34)n2)cc1` [GTC000166A] came in with a half-maximal inhibitory concentration (IC50) of 242 nM.

In turn, `NC(=O)c1cccc(Nc2nccc(N(CCO)c3cccc4[nH]ncc34)n2)c1` [GTC000281A] came in with a half-maximal inhibitory concentration (IC50) of 7.19 nM. Compared with the last compound, the IC50 is about 34-fold lower.

In turn, `COc1ccc(NC(=O)Cc2ccc(Nc3nccc(Nc4cccc5[nH]ncc45)n3)cc2)cc1` [GTC000208A] gave an IC50 of 849 nM.

As to `CNS(=O)(=O)c1ccc(Nc2nccc(Nc3cccc4[nH]ncc34)n2)cc1` [GTC000184A], the IC50 is 493 nM and 443 nM and 161 nM.

`CS(=O)(=O)Nc1ccc(Nc2nccc(Nc3cccc4[nH]ncc34)n2)cc1` [GTC000217A]: half-maximal inhibition (IC50) was put at 414 nM.

For the compound `COCCN(c1ccnc(Nc2ccc3c(cnn3C)c2)n1)c1cccc2[nH]ncc12` [GTC000345A], the half-inhibitory concentration (IC50) stood at 30.8 nM.

Consider `COc1ccc(Nc2nccc(Nc3cccc4[nH]ncc34)n2)cc1` [GTC000135A], for which the half-inhibitory concentration (IC50) is 179 nM and 225 nM and 243 nM and 923 nM.

Consider `O=C1NS(=O)(=O)c2cc(Nc3nccc(Nc4cccc5[nH]ncc45)n3)ccc21` [GTC000133A], for which the IC50 was 17.3 nM and 44.6 nM.

Regarding `CONS(=O)(=O)c1ccc(Nc2nccc(Nc3cccc4[nH]ncc34)n2)cc1` [GTC000180A], the IC50 was 200 nM and 276 nM.

`O=S1(=O)NCc2ccc(Nc3ncc(F)c(N(CC4CCOC4)c4cccc5[nH]ncc45)n3)cc21` (stereo not given) [GTC000253A] showed a half-inhibitory concentration (IC50) of 5.19 nM.

Turning to `CCN(c1nc(Nc2ccc(N3CCN(C)CC3)cc2)ncc1F)c1cccc2[nH]ncc12` [GTC000363A], 105 nM corresponded to half-maximal inhibition (IC50).

`O=C(COc1ccc(Nc2nccc(Nc3cccc4[nH]ncc34)n2)cc1)NCCCO` [GTC000192A]: the midpoint of inhibition, the IC50, lay at 611 nM.

In the case of `COCCN(c1ccnc(Nc2ccc3cnn(C)c3c2)n1)c1cccc2[nH]ncc12` [GTC000313A], the IC50 amounted to 16.6 nM. This IC50 is about 37-fold lower than that of the compound before.

With `CCN(c1nc(Nc2cccc(-c3cccnc3)c2)ncc1F)c1cccc2[nH]ncc12` [GTC000340A], 29.3 nM corresponded to half-maximal inhibition (IC50).

Turning to `CCN(c1nc(Nc2cccc(S(N)(=O)=O)c2)ncc1F)c1cccc2[nH]ncc12` [GTC000240B], the half-inhibitory concentration (IC50) was 3.21 nM and 19 nM and 19.8 nM and 17.2 nM.

The compound `OCCN(c1ccnc(Nc2ccc3nn[nH]c3c2)n1)c1cccc2[nH]ncc12` [GTC000232A] showed a half-inhibitory concentration (IC50) of 2.05 nM.

Compound `CCN(c1nc(Nc2ccc3[nH]c(=O)n(C)c3c2)ncc1F)c1cccc2[nH]ncc12` [GTC000321A] had an IC50 of 21.2 nM.

On to `CCN(c1nc(Nc2ccc3cn[nH]c3c2)ncc1Cl)c1cccc2[nH]ncc12` [GTC000328A], for which the half-inhibitory concentration (IC50) was 15.2 nM and 29.6 nM and 50.5 nM and 12.2 nM.

Take `O=C1Nc2cc(Nc3nccc(Nc4cccc5[nH]ncc45)n3)ccc2OC1(F)F` [GTC000144A]: the 50% inhibitory concentration (IC50) is 13.5 nM and 104 nM.

In the case of `CCN(c1nc(Nc2cccc(S(=O)(=O)NC3CC3)c2)ncc1F)c1cccc2[nH]ncc12` [GTC000342A], the midpoint of inhibition, the IC50, lay at 33.8 nM.

`CN(c1nc(Nc2ccc(C(N)=O)cc2)ncc1F)c1cccc2[nH]ncc12` [GTC000351A] returned an IC50 of 36.6 nM.

For the compound `COCCCN(c1ccnc(Nc2ccc3nn[nH]c3c2)n1)c1cccc2[nH]ncc12` [GTC000257A], inhibition was half-maximal at 5.04 nM (IC50). Against the preceding compound, the IC50 is about 7.3-fold lower.

With `O=S1(=O)NCc2ccc(Nc3nccc(N(CC(F)(F)F)c4cccc5[nH]ncc45)n3)cc21` [GTC000314A], 15.7 nM corresponded to half-maximal inhibition (IC50).

In the case of `c1cc(Nc2nccc(Nc3cccc4[nH]ncc34)n2)cc(-c2ccsc2)c1` [GTC000137A], the IC50 is 94.2 nM and 162 nM and 160 nM and 353 nM.

As for `CCN(c1nc(Nc2ccc3c(c2)S(=O)(=O)N(C)C3)ncc1F)c1cccc2[nH]ncc12` [GTC000289A], the IC50 was 13.7 nM and 5.32 nM and 16.3 nM.

With `CCN(c1nc(Nc2cccc(C(N)=O)c2)ncc1F)c1cccc2[nH]ncc12` [GTC000318A], the half-inhibitory concentration (IC50) was 13.4 nM and 35.2 nM.

`CCN(c1nc(Nc2cc(S(N)(=O)=O)ccc2OC)ncc1F)c1cccc2[nH]ncc12` [GTC000341A] registered an IC50 of 30.5 nM.

With `CCN(CC)CCCN(c1ccnc(Nc2ccc3c(c2)CNS3(=O)=O)n1)c1cccc2[nH]ncc12` [GTC000368A], the IC50 was 229 nM and 88.3 nM.

`NS(=O)(=O)c1cccc(Nc2nccc(Nc3cccc4[nH]ncc34)n2)c1` [3-{[4-(1H-indazol-4-ylamino)pyrimidin-2-yl]amino}benzene-1-sulfonamide]: the 50% inhibitory concentration (IC50) was 18 nM and 47.5 nM.

As to `O=S1(=O)CCc2ccc(Nc3ncc(F)c(N(CC4CCCO4)c4cccc5[nH]ncc45)n3)cc21` (stereo not given) [GTC000278A], half-maximal inhibition (IC50) required 7.98 nM.

As for `CCN(c1nc(Nc2ccc3[nH]c(=O)[nH]c3c2)ncc1Cl)c1cccc2[nH]ncc12` [GTC000290A], the half-inhibitory concentration (IC50) is 6.7 nM and 12.6 nM.

As for `CN(c1nc(Nc2ccc3c(c2)S(=O)(=O)NC3)ncc1F)c1cccc2[nH]ncc12` [GTC000249A], the IC50 is 11.6 nM and 1.99 nM.

Compound `CCN(c1nc(Nc2ccc3c(c2)CC(=O)N3)ncc1F)c1cccc2[nH]ncc12` [GTC000272A] registered an IC50 of 6.95 nM.

Consider `O=C(O)c1ccc(Nc2nccc(Nc3cccc4[nH]ncc34)n2)cc1` [GTC000210A], for which the IC50 is 100 nM and 72.8 nM and 258 nM and 524 nM.

In turn, `CS(=O)(=O)Cc1ccc(Nc2nccc(Nc3cccc4[nH]ncc34)n2)cc1` [GTC000207A] displayed an IC50 of 232 nM.
